Reference: ChEMBL document CHEMBL3882736, “Modulation microtubules diseases; antiproliferative agents; antiinflamamtory agents” (2011)

Legend:
[1] = target: T1, Tyrosine-protein kinase JAK3 (Homo sapiens) (UniProt P52333); assay: Inhibition of TEL-fused JAK3 kinase domain (2520 to 3469 nucleotide) (unknown origin) expressed in mouse BaF3 cells assessed as decrease in cell growth at 20 uM after 40 hrs by MTT assay relative to control; format: cell-based
T1 sequence (whole entry): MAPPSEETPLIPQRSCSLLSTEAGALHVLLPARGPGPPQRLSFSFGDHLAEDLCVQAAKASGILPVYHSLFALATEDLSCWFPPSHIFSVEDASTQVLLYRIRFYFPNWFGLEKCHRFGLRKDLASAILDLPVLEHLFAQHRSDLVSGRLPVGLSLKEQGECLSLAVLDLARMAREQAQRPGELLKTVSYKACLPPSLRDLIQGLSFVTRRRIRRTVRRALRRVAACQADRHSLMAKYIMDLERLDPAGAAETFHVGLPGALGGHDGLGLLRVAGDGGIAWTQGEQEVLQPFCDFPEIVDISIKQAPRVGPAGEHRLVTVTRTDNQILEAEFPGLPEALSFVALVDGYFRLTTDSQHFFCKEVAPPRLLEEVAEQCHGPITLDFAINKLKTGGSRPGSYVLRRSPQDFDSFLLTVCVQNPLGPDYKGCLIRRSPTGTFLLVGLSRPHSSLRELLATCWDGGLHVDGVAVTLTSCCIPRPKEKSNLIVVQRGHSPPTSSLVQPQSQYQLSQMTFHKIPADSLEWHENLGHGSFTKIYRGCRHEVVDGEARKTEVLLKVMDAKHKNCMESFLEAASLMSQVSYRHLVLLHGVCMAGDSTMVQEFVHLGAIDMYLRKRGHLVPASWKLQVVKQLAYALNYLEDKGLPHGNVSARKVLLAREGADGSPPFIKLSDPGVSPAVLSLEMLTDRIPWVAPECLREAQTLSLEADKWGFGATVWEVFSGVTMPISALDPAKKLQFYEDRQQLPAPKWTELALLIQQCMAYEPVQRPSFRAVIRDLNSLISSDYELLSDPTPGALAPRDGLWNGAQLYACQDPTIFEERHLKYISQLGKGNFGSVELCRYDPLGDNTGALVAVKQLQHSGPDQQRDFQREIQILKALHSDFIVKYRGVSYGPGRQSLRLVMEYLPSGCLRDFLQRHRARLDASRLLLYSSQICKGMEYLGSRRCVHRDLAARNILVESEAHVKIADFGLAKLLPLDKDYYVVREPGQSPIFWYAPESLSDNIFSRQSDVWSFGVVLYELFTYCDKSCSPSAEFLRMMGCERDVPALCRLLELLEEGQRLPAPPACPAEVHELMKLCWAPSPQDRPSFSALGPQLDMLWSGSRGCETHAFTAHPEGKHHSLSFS

[2] = Cytotoxicity against human DU145 cells assessed as growth inhibition at 20 uM after 40 hrs by MTT assay relative to control; format: functional; settings: DU-145, 40 h, read-out: GI
Method in brief: (§1)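 Human tumour cells in late log phase, each in its own medium with 10% FBS, were added at 90 µL per well (1.1× final, 50000 to 200,000 cell/mL) to 10 µL compound (10× final) in 96-well plates, from screening plates prepared at 20 µM. Plates were incubated 40 hr at 37° C., 5% CO2, then MTT was added for 6 hours, lysed overnight with SDS/HCl and read at 590 nm. Growth inhibition is relative to control.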

[3] = target: Tyrosine-protein kinase JAK2 (Homo sapiens) (UniProt O60674); assay: Inhibition of TEL-fused JAK2 kinase domain (2994 to 3914 nucleotide) (unknown origin) expressed in mouse BaF3 cells assessed as decrease in cell growth at 20 uM after 40 hrs by MTT assay relative to control; format: cell-based
Tubulin (Homo sapiens) = Tubulin (Homo sapiens) (UniProt P68371+Q9H4B7+P0DPH7+P68366+Q13509+Q71U36+P04350+Q3ZCM7+P07437+P68363+Q9BQE3+Q6PEY2+Q13885+Q9BVA1+Q9BUF5); assay: Inhibition of tubulin (unknown origin) polymerization at 50 uM by turbidometric method relative to control; format: protein-complex assay
Method in brief: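 The inhibition of polymerisation reported here is expressed as percent of control. Polymerisation of microtubule protein of unstated origin, after incubation with compound at 0° C., was started with 1 mM GTP and heating to 37° C. and was tracked over time as absorbance at 340 nm in a thermostatically controlled spectrophotometer.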

[4] = Cytotoxicity against human PC3 cells assessed as growth inhibition at 20 uM after 40 hrs by MTT assay relative to control; format: functional; settings: PC-3, 40 h, read-out: GI; method in brief: as §1
[5] = Cytotoxicity against human K562 cells assessed as growth inhibition at 20 uM after 40 hrs by MTT assay relative to control; format: functional; settings: K562, 40 h, read-out: GI; method in brief: as §1

Tyrosine-protein kinase JAK2 (Homo sapiens), sequence (O60674 whole entry, the tested form may be a part): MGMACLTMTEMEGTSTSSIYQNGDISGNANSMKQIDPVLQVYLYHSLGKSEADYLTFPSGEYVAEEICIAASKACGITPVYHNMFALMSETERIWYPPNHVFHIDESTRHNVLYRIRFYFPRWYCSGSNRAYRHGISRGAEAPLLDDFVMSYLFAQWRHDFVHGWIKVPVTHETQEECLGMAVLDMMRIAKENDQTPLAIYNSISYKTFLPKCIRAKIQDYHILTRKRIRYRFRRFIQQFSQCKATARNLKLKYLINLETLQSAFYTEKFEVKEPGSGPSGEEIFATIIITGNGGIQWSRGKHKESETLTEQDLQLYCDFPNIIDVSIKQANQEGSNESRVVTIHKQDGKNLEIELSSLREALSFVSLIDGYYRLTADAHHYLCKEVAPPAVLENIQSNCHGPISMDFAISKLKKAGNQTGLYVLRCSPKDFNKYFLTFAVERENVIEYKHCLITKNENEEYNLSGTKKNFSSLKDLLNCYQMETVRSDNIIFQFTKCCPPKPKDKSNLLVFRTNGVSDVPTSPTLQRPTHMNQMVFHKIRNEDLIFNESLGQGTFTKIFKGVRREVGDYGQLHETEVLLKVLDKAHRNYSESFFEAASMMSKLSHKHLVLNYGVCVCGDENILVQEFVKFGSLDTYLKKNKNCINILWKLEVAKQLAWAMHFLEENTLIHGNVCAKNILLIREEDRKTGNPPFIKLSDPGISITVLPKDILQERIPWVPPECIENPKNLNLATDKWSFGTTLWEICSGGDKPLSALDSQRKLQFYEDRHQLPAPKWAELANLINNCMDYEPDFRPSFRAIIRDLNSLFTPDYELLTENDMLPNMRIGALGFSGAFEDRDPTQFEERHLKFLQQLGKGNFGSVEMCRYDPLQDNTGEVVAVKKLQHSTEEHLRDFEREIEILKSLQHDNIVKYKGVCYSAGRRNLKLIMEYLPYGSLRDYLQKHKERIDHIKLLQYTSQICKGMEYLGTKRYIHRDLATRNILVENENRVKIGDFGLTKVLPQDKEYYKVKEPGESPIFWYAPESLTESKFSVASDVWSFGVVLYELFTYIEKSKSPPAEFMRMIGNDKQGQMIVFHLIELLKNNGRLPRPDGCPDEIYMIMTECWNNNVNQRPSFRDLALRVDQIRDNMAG

COc1cc(-c2cncc(NC(C)c3cccc(NC(=O)c4ccncc4)c3)n2)ccc1O (stereo not given)
> 50%: inhibition [1] | inhibition of growth at 20 µM [2] | inhibition [3] | inhibition (Tubulin (Homo sapiens))

CCC[C@H](Nc1cncc(-c2ccc(NC(=O)NC)c(OC)c2)n1)c1ccccn1
> 50%: inhibition of growth at 20 µM [4] | inhibition [1] | inhibition of growth at 20 µM [2] | inhibition [3] | inhibition (Tubulin (Homo sapiens)) | inhibition of growth at 20 µM [5]
